Patent US20250186627A1, “RADIOLABELED COMPOUNDS TARGETING THE PROSTATE-SPECIFIC MEMBRANE ANTIGEN” (PROVINCIAL HEALTH SERVICES AUTHORITY, priority 2022, published 2025)
*1 amine or outer side, *2 acyl side, *3 side chain or, on linkers, in order; H or OH if unused. Where a SMILES comes first, the peptide text is derived from it. [ ]: non-standard residue; d: D form. The star is where a group is joined. ξ: configuration not given here. DOTA = O=C(O)CN1CCN(CC(=O)O)CCN(CC(=O)*)CCN(CC(=O)O)CC1; Butanoyl(4-(4-MeO-phenyl)) = COc1ccc(CCCC(=O)*)cc1; ξAla(9-anthryl) = NC(Cc1c2ccccc2cc2ccccc12)C(=O)O; X2 = O=C(NC(CCCCN*)C(=O)O)NC(CC(F)C(=O)O)C(=O)O; X1 = O=C(C1CCC(CN[*:1])CC1)[*:2]; ξK = NCCCCC(N)C(=O)O

Tested on: NRG-mice bearing LNCaP tumors
Test: Biodistribution (and PET/SPECT imaging) in NRG-mice bearing LNCaP tumors
Type: in vivo
Conditions: Avg
Procedure: LNCaP cell line was obtained from ATCC (LNCaP clone FGC, CRL-1740). It was established from a metastatic site of left supraclavicular lymph node of human prostatic adenocarcinoma. Cells were cultured in PRMI 1640 medium supplemented with 10% FBS, penicillin (100 U/mL) and streptomycin (100 μg/mL) at 37° C. in a humidified incubator containing 5% CO2. Cells grown to 80-90% confluence were then washed with sterile phosphate-buffered saline (1×PBS pH 7.4) and trypsinization. The collected cells number was counted with a Hausser Scientific (Horsham, PA) Hemacytometer. Approximately 10 million LNCaP cells were inoculated into the left dorsal flank of immunocomprised NRG mice. The tumours were allowed to grow for 4-6 weeks and used for imaging and biodistribution studies when a volume of 200-600 mm^3 was reached.
PET imaging experiments were conducted using Siemens Inveon micro PET/CT scanner. SPECT imaging experiments were conducted using an MILabs micro SPECT/CT scanner. Each tumor bearing mouse was injected 4-6 MBq of ^68Ga or 18.5 MBq of ^177Lu labeled tracer through the tail vein under anesthesia (2% isoflurane in oxygen). The mice were allowed to recover and roam freely in their cage. At pre-defined time point, the mice were sedated again with 2% isoflurane in oxygen inhalation and positioned in the scanner. A 10-min CT scan was conducted first for localization and attenuation correction after segmentation for reconstructing the PET or SPECT images. Then, a 10-min static PET imaging or a one hour (30 min×2 frames) of static SPECT scan was performed to determined uptake in tumor and other organs. The mice were kept warm by a heating pad during acquisition.
For biodistribution studies, the mice were injected with the radiotracer as described above. The mice were anesthetized with 2% isoflurane inhalation, and euthanized by CO2 inhalation. Blood was withdrawn immediately from the heart, and the organs/tissues of interest were collected. The collected organs/tissues were weighed and counted using a Perkin Elmer (Waltham, MA) Wizard2 2480 gamma counter. The uptake in each organ/tissue was normalized to the injected dose (radioactivity) using a standard curve, and expressed as the percentage of the injected dose per gram of tissue (% ID/g).

Structure (SMILES): COc1ccc(CCCC(=O)NCC(=O)NC(CCCCNC(=O)CN2CCN(CC(=O)[O-])CCN(CC(=O)[O-])CCN(CC(=O)[O-])CC2)C(=O)NCC(=O)NCC2CCC(C(=O)NC(Cc3c4ccccc4cc4ccccc34)C(=O)NCCCCC(NC(=O)NC(CC(F)C(=O)O)C(=O)O)C(=O)O)CC2)cc1.[177Lu+3] (stereo not drawn) [^177Lu-CCZ02008] ({Butanoyl(4-(4-MeO-phenyl))}-G[ξK](DOTA)G[X1][ξAla(9-anthryl)]-X2)
- Biodistribution: Adrenal gland (4 h p.i.): 5.91 % ID/g
- Biodistribution: Blood (4 h p.i.): 24.97 % ID/g
- Biodistribution: Bone (4 h p.i.): 1.49 % ID/g
- Biodistribution: Brain (4 h p.i.): 0.47 % ID/g
- Biodistribution: Fat (4 h p.i.): 2.63 % ID/g
- Biodistribution: Heart (4 h p.i.): 5.42 % ID/g
- Biodistribution: Intestine (4 h p.i.): 1.87 % ID/g
- Biodistribution: LNCaP tumor (4 h p.i.): 21.30 % ID/g
- Biodistribution: Lacrimal gland (4 h p.i.): 1.44 % ID/g
- Biodistribution: Liver (4 h p.i.): 4.26 % ID/g
- Biodistribution: Lungs (4 h p.i.): 10.19 % ID/g
- Biodistribution: Muscle (4 h p.i.): 1.75 % ID/g
- Biodistribution: Pancreas (4 h p.i.): 2.20 % ID/g
- Biodistribution: Salivary gland (4 h p.i.): 4.23 % ID/g
- Biodistribution: Seminal gland (4 h p.i.): 1.53 % ID/g
- Biodistribution: Spleen (4 h p.i.): 2.15 % ID/g
- Biodistribution: Stomach (4 h p.i.): 1.11 % ID/g
- Biodistribution: Testes (4 h p.i.): 3.83 % ID/g
- Biodistribution: Thyroid (4 h p.i.): 4.29 % ID/g
- Biodistribution: Urine (4 h p.i.): 76.61 % ID/g
- Biodistribution: kidney (4 h p.i.): 10.56 % ID/g
- Biodistribution: Adrenal gland (24 h p.i.): 2.39 % ID/g
- Biodistribution: Blood (24 h p.i.): 4.37 % ID/g
- Biodistribution: Bone (24 h p.i.): 0.36 % ID/g
- Biodistribution: Brain (24 h p.i.): 0.09 % ID/g
- Biodistribution: Fat (24 h p.i.): 0.71 % ID/g
- Biodistribution: Heart (24 h p.i.): 1.27 % ID/g
- Biodistribution: Intestine (24 h p.i.): 0.59 % ID/g
- Biodistribution: LNCaP tumor (24 h p.i.): 38.57 % ID/g
- Biodistribution: Lacrimal gland (24 h p.i.): 0.12 % ID/g
- Biodistribution: Liver (24 h p.i.): 1.16 % ID/g
- Biodistribution: Lungs (24 h p.i.): 2.49 % ID/g
- Biodistribution: Muscle (24 h p.i.): 0.40 % ID/g
- Biodistribution: Pancreas (24 h p.i.): 0.62 % ID/g
- Biodistribution: Salivary gland (24 h p.i.): 1.38 % ID/g
- Biodistribution: Seminal gland (24 h p.i.): 0.38 % ID/g
- Biodistribution: Spleen (24 h p.i.): 0.86 % ID/g
- Biodistribution: Stomach (24 h p.i.): 0.48 % ID/g
- Biodistribution: Testes (24 h p.i.): 1.86 % ID/g
- Biodistribution: Thyroid (24 h p.i.): 1.54 % ID/g
- Biodistribution: Urine (24 h p.i.): 28.57 % ID/g
- Biodistribution: kidney (24 h p.i.): 7.55 % ID/g
- Biodistribution: Adrenal gland (72 h p.i.): 2.59 % ID/g
- Biodistribution: Blood (72 h p.i.): 0.42 % ID/g
- Biodistribution: Bone (72 h p.i.): 0.26 % ID/g
- Biodistribution: Brain (72 h p.i.): 0.03 % ID/g
- Biodistribution: Fat (72 h p.i.): 0.39 % ID/g
- Biodistribution: Heart (72 h p.i.): 0.37 % ID/g
- Biodistribution: Intestine (72 h p.i.): 0.15 % ID/g
- Biodistribution: LNCaP tumor (72 h p.i.): 38.46 % ID/g
- Biodistribution: Lacrimal gland (72 h p.i.): 0.07 % ID/g
- Biodistribution: Liver (72 h p.i.): 0.47 % ID/g
- Biodistribution: Lungs (72 h p.i.): 0.69 % ID/g
- Biodistribution: Muscle (72 h p.i.): 0.11 % ID/g
- Biodistribution: Pancreas (72 h p.i.): 0.17 % ID/g
- Biodistribution: Salivary gland (72 h p.i.): 0.55 % ID/g
- Biodistribution: Seminal gland (72 h p.i.): 0.15 % ID/g
- Biodistribution: Spleen (72 h p.i.): 0.83 % ID/g
- Biodistribution: Stomach (72 h p.i.): 0.18 % ID/g
- Biodistribution: Testes (72 h p.i.): 0.92 % ID/g
- Biodistribution: Thyroid (72 h p.i.): 0.65 % ID/g
- Biodistribution: Urine (72 h p.i.): 4.51 % ID/g
- Biodistribution: kidney (72 h p.i.): 3.53 % ID/g
- Biodistribution: Adrenal gland (120 h p.i.): 1.39 % ID/g
- Biodistribution: Blood (120 h p.i.): 0.14 % ID/g
- Biodistribution: Bone (120 h p.i.): 0.14 % ID/g
- Biodistribution: Brain (120 h p.i.): 0.02 % ID/g
- Biodistribution: Fat (120 h p.i.): 0.22 % ID/g
- Biodistribution: Heart (120 h p.i.): 0.22 % ID/g
- Biodistribution: Intestine (120 h p.i.): 0.14 % ID/g
- Biodistribution: LNCaP tumor (120 h p.i.): 45.01 % ID/g
- Biodistribution: Lacrimal gland (120 h p.i.): 0.12 % ID/g
- Biodistribution: Liver (120 h p.i.): 0.30 % ID/g
- Biodistribution: Lungs (120 h p.i.): 0.30 % ID/g
- Biodistribution: Muscle (120 h p.i.): 0.09 % ID/g
- Biodistribution: Pancreas (120 h p.i.): 0.11 % ID/g
- Biodistribution: Salivary gland (120 h p.i.): 0.34 % ID/g
- Biodistribution: Seminal gland (120 h p.i.): 0.27 % ID/g
- Biodistribution: Spleen (120 h p.i.): 1.45 % ID/g
- Biodistribution: Stomach (120 h p.i.): 0.37 % ID/g
- Biodistribution: Testes (120 h p.i.): 0.67 % ID/g
- Biodistribution: Thyroid (120 h p.i.): 0.39 % ID/g
- Biodistribution: Urine (120 h p.i.): 3.80 % ID/g
- Biodistribution: kidney (120 h p.i.): 2.04 % ID/g
